Bridge positions count the residues as written; N and C are the ends. Square brackets hold non-standard residues; d marks the D form. Peptide text beside a SMILES is read from it. Hyp = O=C(O)[C@@H]1C[C@@H](O)CN1
Target: OCT MVIIA (SNX-111) binding site (site 1) (Rattus norvegicus, UniProt Q02294)
Test: biochemical

Sequence of OCT MVIIA (SNX-111) binding site (site 1) (Q02294 whole entry, looked up): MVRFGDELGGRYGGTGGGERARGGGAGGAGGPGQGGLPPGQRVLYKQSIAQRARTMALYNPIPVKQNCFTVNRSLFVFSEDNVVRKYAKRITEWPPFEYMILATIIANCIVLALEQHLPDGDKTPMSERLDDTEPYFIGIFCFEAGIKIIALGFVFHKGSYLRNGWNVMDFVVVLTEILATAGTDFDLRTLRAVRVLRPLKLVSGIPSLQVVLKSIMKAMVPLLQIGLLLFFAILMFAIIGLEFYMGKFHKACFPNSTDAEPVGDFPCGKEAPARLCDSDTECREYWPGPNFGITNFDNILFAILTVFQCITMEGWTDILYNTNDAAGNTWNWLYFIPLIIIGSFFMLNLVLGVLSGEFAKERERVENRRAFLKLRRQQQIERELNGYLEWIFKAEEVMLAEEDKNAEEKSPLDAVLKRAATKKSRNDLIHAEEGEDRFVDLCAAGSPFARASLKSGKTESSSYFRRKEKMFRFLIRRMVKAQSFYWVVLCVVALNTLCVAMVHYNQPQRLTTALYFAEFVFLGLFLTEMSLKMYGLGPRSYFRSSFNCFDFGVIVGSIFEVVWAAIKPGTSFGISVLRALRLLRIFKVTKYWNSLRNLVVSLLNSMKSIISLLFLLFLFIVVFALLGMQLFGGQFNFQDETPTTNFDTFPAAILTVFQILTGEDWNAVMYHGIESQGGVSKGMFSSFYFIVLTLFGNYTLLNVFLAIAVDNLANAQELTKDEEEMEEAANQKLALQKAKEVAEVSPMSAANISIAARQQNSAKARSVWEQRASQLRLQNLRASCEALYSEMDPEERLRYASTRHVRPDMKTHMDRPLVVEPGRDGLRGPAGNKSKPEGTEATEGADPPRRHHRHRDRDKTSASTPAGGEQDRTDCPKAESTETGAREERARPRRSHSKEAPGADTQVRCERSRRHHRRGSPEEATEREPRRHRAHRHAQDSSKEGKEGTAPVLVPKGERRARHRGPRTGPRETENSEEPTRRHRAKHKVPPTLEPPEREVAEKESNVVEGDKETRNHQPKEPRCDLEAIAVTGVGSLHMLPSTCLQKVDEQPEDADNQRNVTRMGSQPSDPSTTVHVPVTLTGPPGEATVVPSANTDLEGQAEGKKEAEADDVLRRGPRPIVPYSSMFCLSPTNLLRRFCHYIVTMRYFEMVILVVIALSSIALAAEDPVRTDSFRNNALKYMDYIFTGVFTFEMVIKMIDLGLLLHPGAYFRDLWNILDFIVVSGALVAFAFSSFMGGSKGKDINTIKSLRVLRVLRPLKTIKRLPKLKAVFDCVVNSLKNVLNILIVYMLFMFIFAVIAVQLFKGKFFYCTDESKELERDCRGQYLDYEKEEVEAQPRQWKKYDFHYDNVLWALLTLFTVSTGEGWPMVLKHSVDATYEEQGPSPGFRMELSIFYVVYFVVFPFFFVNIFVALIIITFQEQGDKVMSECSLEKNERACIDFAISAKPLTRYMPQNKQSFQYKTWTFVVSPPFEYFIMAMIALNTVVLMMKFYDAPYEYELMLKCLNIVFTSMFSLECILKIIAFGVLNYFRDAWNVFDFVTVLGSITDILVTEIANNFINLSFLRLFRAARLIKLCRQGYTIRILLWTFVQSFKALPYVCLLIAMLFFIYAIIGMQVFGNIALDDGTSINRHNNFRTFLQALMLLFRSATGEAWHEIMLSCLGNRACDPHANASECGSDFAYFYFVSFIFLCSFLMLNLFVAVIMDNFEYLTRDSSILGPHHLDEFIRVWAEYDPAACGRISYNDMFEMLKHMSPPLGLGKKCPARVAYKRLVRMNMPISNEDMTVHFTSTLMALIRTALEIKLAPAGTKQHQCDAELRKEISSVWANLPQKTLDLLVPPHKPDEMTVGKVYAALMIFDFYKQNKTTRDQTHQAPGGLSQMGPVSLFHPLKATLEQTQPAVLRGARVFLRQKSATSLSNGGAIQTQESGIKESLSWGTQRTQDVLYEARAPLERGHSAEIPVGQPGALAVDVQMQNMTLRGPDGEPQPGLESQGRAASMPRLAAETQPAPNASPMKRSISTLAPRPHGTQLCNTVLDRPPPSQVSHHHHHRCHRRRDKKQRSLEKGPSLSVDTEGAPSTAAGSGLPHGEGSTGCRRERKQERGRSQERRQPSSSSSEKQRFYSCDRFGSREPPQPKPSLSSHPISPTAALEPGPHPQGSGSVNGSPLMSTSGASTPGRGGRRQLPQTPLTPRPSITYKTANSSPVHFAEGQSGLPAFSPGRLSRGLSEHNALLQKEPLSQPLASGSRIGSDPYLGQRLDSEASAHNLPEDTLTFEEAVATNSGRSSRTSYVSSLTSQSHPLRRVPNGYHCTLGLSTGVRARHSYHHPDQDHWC

Compound: CC[C@H](C)[C@@H]1NC(=O)[C@H](CO)NC(=O)[C@H]([C@@H](C)O)NC(=O)[C@H](C(C)C)NC(=O)CNC(=O)[C@@H]2CSSC[C@@H]3NC(=O)[C@H](CCCNC(=N)N)NC(=O)CNC(=O)[C@H](CSSC[C@H](N)C(=O)N[C@@H](CCCNC(=N)N)C(=O)N[C@@H](CO)C(=O)N[C@@H](CO)C(=O)NCC(=O)N[C@@H](CO)C(=O)N4C[C@H](O)C[C@H]4C(=O)N2)NC(=O)[C@H](CSSC[C@@H](C(=O)N[C@H](C(N)=O)[C@@H](C)O)NC(=O)[C@H](CCCCN)NC(=O)CNC(=O)[C@H](CCCNC(=N)N)NC(=O)[C@H](Cc2ccc(O)cc2)NC3=O)NC1=O [SNX-157] (H-CRSSGS[Hyp]CGVTSICCGRCYRGKCT-NH2; disulfide 1-15, 8-18, 14-23)
- IC50: 1.46 µM

— US5795864A (priority 1995, dated 1998)
